Reference: ChEMBL document CHEMBL3297726, “Isolation and structure elucidation of cystargamide, a lipopeptide from Kitasatospora cystarginea” (J Nat Prod, 2014)
The source made the active and inactive calls. Positions of bridges follow the written chain, without caps; N, C: chain ends. Non-standard residues stand in square brackets, D forms with d. Residues, ends and D or L forms follow the SMILES beside them. *: point of attachment. Trp(5-OH) = N[C@@H](Cc1c[nH]c2ccc(O)cc12)C(=O)O; Hpg = N[C@H](C(=O)O)c1ccc(O)cc1; X1 = CCCCCCCC1OC1C(=O)*

Assays:
Type in all cases: functional, organism-based
[1] = system: Enterococcus faecium; assay: Antimicrobial activity against vancomycin-resistant Enterococcus faecium EF379 assessed as growth inhibition at 128 ug/ml
[2] = system: Staphylococcus aureus; assay: Antimicrobial activity against methicillin-resistant Staphylococcus aureus ATCC 33591 assessed as growth inhibition at 128 ug/ml
[3] = system: Staphylococcus warneri; assay: Antimicrobial activity against Staphylococcus warneri ATCC 17917 assessed as growth inhibition at 128 ug/ml
[4] = system: Candida albicans; assay: Antimicrobial activity against Candida albicans ATCC 14035 assessed as growth inhibition at 128 ug/ml

Measured: growth inhibition (GI)

CCCCCCCC1OC1C(=O)N[C@@H]1C(=O)N[C@@H](Cc2ccccc2)C(=O)N[C@@H](CCC(=O)O)C(=O)N[C@@H](Cc2c[nH]c3ccc(O)cc23)C(=O)N[C@@H](c2ccc(O)cc2)C(=O)NCC(=O)O[C@@H]1C (some centres undefined) (X1-TFE[Trp(5-OH)][Hpg]G; ester 1-C)
inactive: all assays above
